Drawing on PubChem BioAssay (NCI), this text covers TGI for twelve molecules.

Some test systems named below: A498 renal; BT-549 breast; HOP-92 NSCLC; IGROV1 ovarian; M14 melanoma; MALME-3M melanoma; MCF7 breast; MDA-MB-435; SK-MEL-5 melanoma; SK-OV-3 ovarian.
Holding throughout (test): NCI tumour cell line growth inhibition, 48 h

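Cells were grown in 96-well plates and exposed to each compound for 48 hours at five concentrations; endpoints were interpolated linearly between bracketing concentrations, or set to the highest concentration if not reached. TGI is the concentration that stops growth completely.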

In the case of `Cc1ccc2c(c1)-c1c(C#N)c(N)nc(-c3ccc(Cl)cc3)c1CCS2(=O)=O`, the TGI in the assay with A498 renal is above 60.5 µM; in the assay with BT-549 breast, above 100 µM; in the assay with HOP-92 NSCLC, above 100 µM; in the assay on IGROV1 ovarian it was above 100 µM; in the assay on M14 melanoma, above 100 µM; in the assay on MALME-3M melanoma, above 100 µM. Besides, the TGI in the assay with MCF7 breast is above 100 µM; in the assay with MDA-MB-435, above 79.2 µM; in the assay on SK-MEL-5 melanoma it was above 68 µM; in the assay with SK-OV-3 ovarian it was above 100 µM.

On to `COc1ccc(/C=c2\s/c(=C3/SC(=S)N(c4ccccc4)C3=O)n(-c3ccccc3)c2=O)cc1`, for which the TGI is above 100 µM in the assay on A498 renal; above 100 µM with BT-549 breast; above 100 µM with HOP-92 NSCLC; 75.9 µM in the assay with IGROV1 ovarian; above 100 µM in the assay on M14 melanoma; above 100 µM with MALME-3M melanoma. For the same molecule, the TGI in the assay with MCF7 breast was above 100 µM; in the assay on MDA-MB-435, above 100 µM; with SK-MEL-5 melanoma, above 100 µM; in the assay with SK-OV-3 ovarian, 45 µM.

Regarding `C1=C2C3=[N+](CCCCC3)CC2Cc2ccsc21` (stereo not given), the TGI in the assay with A498 renal, in the assay with BT-549 breast, in the assay with HOP-92 NSCLC, with IGROV1 ovarian, with M14 melanoma and in the assay on MALME-3M melanoma was above 100 µM throughout. Also, the TGI in the assay with MCF7 breast, with MDA-MB-435, in the assay with SK-MEL-5 melanoma and in the assay with SK-OV-3 ovarian was above 100 µM in each case.

Take `O=c1c(Cc2ccc(Cl)cc2)nnc2sc(-c3ccc(-c4ccc(F)c(Cl)c4)o3)nn12`: the TGI in the assay on A498 renal, in the assay on BT-549 breast, in the assay on HOP-92 NSCLC, in the assay with IGROV1 ovarian, in the assay with M14 melanoma and with MALME-3M melanoma was above 100 µM each time. For the same molecule, the TGI in the assay on MCF7 breast, in the assay with MDA-MB-435, with SK-MEL-5 melanoma and in the assay on SK-OV-3 ovarian was above 100 µM in each case.

As to `N#CC1(O)CCCCCCCCCCC1`, the TGI in the assay on A498 renal, with BT-549 breast, with HOP-92 NSCLC, in the assay on IGROV1 ovarian, with M14 melanoma and in the assay with MALME-3M melanoma was above 100 µM each time. The TGI with MCF7 breast, in the assay with MDA-MB-435, with SK-MEL-5 melanoma and in the assay on SK-OV-3 ovarian was above 100 µM in each case.

As for `CCC(CO)Nc1nc(NCc2ccccc2)c2ncn(C(C)C)c2n1` (stereo not given), the TGI is 77.3 µM in the assay on A498 renal; above 55.3 µM with BT-549 breast; 56.2 µM in the assay with HOP-92 NSCLC; above 100 µM in the assay on IGROV1 ovarian; 32.7 µM with M14 melanoma; 59.3 µM in the assay with MALME-3M melanoma. Besides, the TGI was above 57.3 µM in the assay with MCF7 breast, above 68.1 µM in the assay on MDA-MB-435, above 51.8 µM in the assay on SK-MEL-5 melanoma and above 100 µM in the assay with SK-OV-3 ovarian.

With `CCCCSc1nsc(N(C(=O)c2ccccc2)C(=O)c2ccccc2)n1`, the TGI in the assay with A498 renal was 88.8 µM; in the assay on BT-549 breast, 92.1 µM; in the assay with HOP-92 NSCLC, 75 µM; in the assay on IGROV1 ovarian it was above 100 µM; in the assay on M14 melanoma it was above 100 µM; in the assay on MALME-3M melanoma, 71.1 µM. In addition, the TGI in the assay with MCF7 breast was above 100 µM; in the assay on MDA-MB-435 it was above 100 µM; with SK-MEL-5 melanoma, 36.6 µM; in the assay on SK-OV-3 ovarian, above 100 µM.

On to `C=C1C(OC2O[C@@H]3O[C@@]4(C)CC[C@H]5[C@H](C)CC[C@@H](C2=C)[C@@]35O4)O[C@@H]2O[C@@]3(C)CC[C@H]4[C@H](C)CC[C@@H]1[C@@]24O3` (stereo not given in full), for which the TGI in the assay on A498 renal, in the assay on BT-549 breast, in the assay with HOP-92 NSCLC, in the assay on IGROV1 ovarian, in the assay on M14 melanoma and in the assay with MALME-3M melanoma was above 50 µM each time. Besides, the TGI in the assay with MCF7 breast, in the assay on MDA-MB-435, in the assay with SK-MEL-5 melanoma and in the assay with SK-OV-3 ovarian was above 50 µM in each case.

In the case of `Cc1cc(S(=O)(=O)Nc2n[nH]c(-c3ccccn3)n2)c(S)cc1Cl`, the TGI in the assay on A498 renal stood at 30.5 µM; in the assay on BT-549 breast it was 79.6 µM; with HOP-92 NSCLC, 64.1 µM; in the assay with IGROV1 ovarian, 85.4 µM; with M14 melanoma it was 44.5 µM; with MALME-3M melanoma, 60.3 µM. Further, the TGI is above 100 µM in the assay with MCF7 breast, 70.6 µM in the assay on MDA-MB-435, 24.3 µM in the assay with SK-MEL-5 melanoma and 37.3 µM in the assay with SK-OV-3 ovarian.

On to `O=c1nc2c(c(-c3ccc(Br)cc3)[nH]1)COC/C2=C\c1ccc(Br)cc1`, for which the TGI with A498 renal, with BT-549 breast, in the assay on HOP-92 NSCLC, in the assay with IGROV1 ovarian, in the assay with M14 melanoma and with MALME-3M melanoma was above 50 µM throughout. In addition, the TGI in the assay on MCF7 breast, in the assay with MDA-MB-435, in the assay on SK-MEL-5 melanoma and in the assay with SK-OV-3 ovarian was above 50 µM in each case.

Regarding `C=C1OC(c2ccccc2NC)=NC12CCCCC2`, the TGI with A498 renal, with BT-549 breast, with HOP-92 NSCLC, in the assay with IGROV1 ovarian, in the assay with M14 melanoma and in the assay on MALME-3M melanoma was above 100 µM in each case. Besides, the TGI in the assay on MCF7 breast, with MDA-MB-435, in the assay on SK-MEL-5 melanoma and with SK-OV-3 ovarian was above 100 µM in each case.

Turning to `OCCOCn1nncc1Cn1ncc2c(SCc3ccccc3)ncnc21`, the TGI in the assay on A498 renal, in the assay on BT-549 breast, with HOP-92 NSCLC, with IGROV1 ovarian, with M14 melanoma and in the assay with MALME-3M melanoma was above 100 µM in each case. For the same molecule, the TGI with MCF7 breast, in the assay on MDA-MB-435, with SK-MEL-5 melanoma and in the assay on SK-OV-3 ovarian was above 100 µM each time.
